Several values for one entry are separate records, joined by “and”; a condition that tells them apart may be missing. Equal entries are not always repeated.
Columns and labels:
ACTH release = details: adrenalectomized rats; similar doses; Rivier et al. 1999; cited from earlier work
CRF-OE mice [1] = assay: Hair growth and skin pigmentation after ip injection in adult alopecic CRF-OE mice (Example 2); assay type: in vivo; parameters: key to Back Hair Growth Score (BK) / Ventral Abdomen Hair Growth Score (VAb): hair growth score 0-10: 0 = no change in hair, 10 = full hair growth; key to Skin pigmentation (Pg) score: pigment score 0-10: 0 = bright pink skin, 10 = fully black; details: for Back Hair Growth Score (BK) / Skin pigmentation (Pg) score / Ventral Abdomen Hair Growth Score (VAb): adult male CRF-OE mice, individual mice and Ave.
Procedure: (§1) Hair growth in CRF-OE mice was assessed using the hair growth scale developed by Vegesna et al. […], 2002) modified to account for phenotypic differences between CRF-OE mice. Scores were made visually as well as using photographs of each mouse at a weekly interval. The degree of alopecia varied between individual CRF-OE mice; thus, the percent difference between the amount of hair present in the test area (described below) before and 4 weeks after treatment was converted to a score of 0-10. A zero score corresponded to a no change in the amount of hair in the test area and a score of 10 corresponded to full hair growth in the entire test area. The scale for monitoring hair growth in CRF-OE mice is more particularly described in Table 2.
(§2) Pigmentation of the skin (also referred to as skin color) in the test region was also measured because, in C57BL/6 mice, the skin darkens at the onset of hair growth. A pigmentation score from 0-10 was given to each mouse with a score of 0 corresponding to bright pink skin color/pigment in the entire test region, a score of 1-5 corresponding to increasing intensity of a pale greyish color/pigment of skin in the test region, a score of 6-9 corresponding to increasing but non-confluent darker color/pigment of skin in the test region, and a score of 10 corresponding to black pigmentation of the entire test region. Pigmentation was measured one week after the fifth and final injection because changes (if any) in pigmentation are substantially complete by that time.
(§3) CRF-OE mice (approximately 4 months old) with fully developed alopecia on their backs were injected intraperitoneally (ip) with equal volumes (0.1 ml) of either saline or astressin B (5 μg/mouse/day) for 5 consecutive days. Skin pigment score and hair growth (on the back) score were determined as described in Example 1. In addition, because adult CRF-OE mice also lose ventral abdomen hair, a ventral abdomen (Vab) hair growth score was determined. The area considered for scoring ventral abdomen hair growth was delineated, in the front (anteriorly), by a horizontal line across the tip of the xifoid process (distal sternum), in the rear (posteriorly), by a horizontal line joining the back of the thighs along the anus, and, laterally, by a straight line along the lateral side of the ventral abdomen on left and right sides.

CRF-OE mice [2] = assay: Long-term hair growth after sc injection in alopecic female CRF-OE mice (Example 5); assay type: in vivo; details: two female CRF-OE mice; sc 5 μg/day x 5 days; four months after the final injection
Procedure: Two female CRF-OE mice, which had fully developed alopecia, received a single daily subcutaneous injection of 5 μg astressin B (in 0.1 ml saline) in the back for five consecutive days. Four (4) months after the final injection, the growth of hair on the backs of both mice was scored 9 out of 10. Similarly, two out of four male CRF-OE mice received intraperitoneal injection of 5 μg astressin B for five consecutive days. Thus, the mice not only grew hair in a previously bald (or balding) region, but such hair was maintained for months without on-going treatment.

CRF-OE mice [3] = assay: Repeat sc experiment in female CRF-OE mice (4.5 months old): skin pigment and hair growth scores; assay type: in vivo; parameters: key to Skin pigmentation (Pg) score: 0 = bright pink skin, 10 = black pigmentation of entire region; key to Ventral Abdomen Hair Growth Score (VAb) / Back Hair Growth Score (BK): 0 = no change in hair, 10 = full hair growth in test area; details: sc 5 μg/mouse x 5 days
Procedure: as §1, §2
Experiments were repeated in female CRF-OE mice (4.5 months old) to confirm the results. Mice were injected with astressin B (5 μg/mouse, 10 mice) or saline (5 mice) for 5 days. Skin pigment and hair growth scores were given as described before. Five astressin B-treated and five saline injected mice were sacrificed for skin tissue collection at seven days post last injection. Additional mice (5) injected with astressin B were sacrificed on day 14. Five littermate wild type (WT) mice were used as normal control. Adrenal gland and abdominal fat weights were also checked at sacrifice of each mouse.
as §3

CRF1/CRF2 receptor = CRF1/CRF2 receptor antagonist; stated without test; cited from earlier work
CRF-OE mice [4] = assay: Subcutaneous implanted mini-pump in CRF-OE mice, hair growth; assay type: in vivo; details: 10 μg/mouse/day for 7 days, implanted mini-pump sc; CRF-OE male and female mice 5-7 months old
Text: Eight (8) out of 9 (89%) female mice responded to injected (sc) astressin B with increased pigmentation and hair growth. The remaining […] female mice were observed qualitatively. Similarly, 4 out of 4 (100%) of the male mice responded to astressin B with increased pigmentation and hair growth. In contrast, none of the astressin 2B-injected mice (0%) grew significant amounts of hair.

[5] = similar doses; Rivier et al. 2002; cited from earlier work
[6] = ip 5 μg/mouse/day x 5 days, CRF-OE mice
[7] = ip 5 μg/mouse/day x 5 days, Before (Week 0), listed as AB
[8] = ip 5 μg/mouse/day x 5 days, Before (Week 0), listed as AB, mean
[9] = ip 5 μg/mouse/day x 5 days, Week 1, listed as AB
[10] = ip 5 μg/mouse/day x 5 days, Week 1, listed as AB, mean
[11] = ip 5 μg/mouse/day x 5 days, Week 8, listed as AB
[12] = ip 5 μg/mouse/day x 5 days, Week 8, listed as AB, mean
[13] = Before (Week 0), individual mice and Ave., listed as AB
[14] = Before (Week 0), individual mice and Ave., listed as AB, mean
[15] = Week 1, individual mice and Ave., listed as AB
[16] = Week 1, individual mice and Ave., listed as AB, mean

(cyclo 30-33)[DPhe12, Nle21,38, Cml27,40, Glu30, Lys33]Ac-h/rCRF9-41 [Astressin B]
Duration of inhibition of elevated ACTH release (ACTH release): over 12 hours
Onset of dark skin pigment after the final injection (CRF-OE mice [1]; [6]): ≤ 3 days
Time of darkest skin color / maximal pigment response after the final injection (CRF-OE mice [1]; [6]): 7 to 10 days
Re-grown hair maintained / retained after the final ip injection (CRF-OE mice [1]; ip 5 μg/mouse/day x 5 days, CRF-OE mice, listed as astressin B): ≥ 8 weeks
Re-grown hair maintained / retained after the final ip injection (CRF-OE mice [1]; ip 5 μg/mouse/day x 5 days, CRF-OE mice, listed as astressin-B): 8 weeks
Back Hair Growth Score (BK) (CRF-OE mice [1]; [7]): 2 and 1 (3×)
Skin pigmentation (Pg) score (CRF-OE mice [1]; [7]): 0.0
Ventral Abdomen Hair Growth Score (VAb) (CRF-OE mice [1]; [7]): 5 (3×) and 2.5
Back Hair Growth Score (BK) (CRF-OE mice [1]; [8]): 1.25
Skin pigmentation (Pg) score (CRF-OE mice [1]; [8]): 0
Ventral Abdomen Hair Growth Score (VAb) (CRF-OE mice [1]; [8]): 4.4
Skin pigmentation (Pg) score (CRF-OE mice [1]; ip 5 μg/mouse/day x 5 days, Week 1): 10
Back Hair Growth Score (BK) (CRF-OE mice [1]; [9]): 9.5 and 10 and 9 (2×)
Ventral Abdomen Hair Growth Score (VAb) (CRF-OE mice [1]; [9]): 10 (2×) and 8 (2×)
Back Hair Growth Score (BK) (CRF-OE mice [1]; [10]): 9.4
Ventral Abdomen Hair Growth Score (VAb) (CRF-OE mice [1]; [10]): 9
Ventral Abdomen Hair Growth Score (VAb) (CRF-OE mice [1]; ip 5 μg/mouse/day x 5 days, Week 4): 10
Back Hair Growth Score (BK) (CRF-OE mice [1]; ip 5 μg/mouse/day x 5 days, Week 4, listed as AB): 10 (3×) and 9.5
Back Hair Growth Score (BK) (CRF-OE mice [1]; ip 5 μg/mouse/day x 5 days, Week 4, listed as AB, mean): 9.9
Ventral Abdomen Hair Growth Score (VAb) (CRF-OE mice [1]; ip 5 μg/mouse/day x 5 days, Week 4, mean): 10
Back Hair Growth Score (BK) (CRF-OE mice [1]; [11]): 10 and 9.5 and 8.5 and 8
Ventral Abdomen Hair Growth Score (VAb) (CRF-OE mice [1]; [11]): 10 (2×) and 8 (2×)
Back Hair Growth Score (BK) (CRF-OE mice [1]; [12]): 9
Ventral Abdomen Hair Growth Score (VAb) (CRF-OE mice [1]; [12]): 9
Hair coverage (CRF-OE mice [1]; ip 5 μg/mouse/day x 5 days, at 2 weeks, four-month old male CRF-OE mice): 95-100%
Re-grown hair largely maintained after the last ip injection (CRF-OE mice [1]; ip 5 μg/mouse/day x 5 days, four-month old male CRF-OE mice): up to 16 weeks
Hair growth score (fully grown hair) (CRF-OE mice [1]; ip, four and seven weeks after the final injection, all mice): 9-10
Mice with dark skin (CRF-OE mice [1]; ip, one week after the final injection, fraction of mice): 4/4
Growth of hair on the back, score out of 10 (CRF-OE mice [2]): 9
Skin pigmentation (Pg) score (CRF-OE mice [3]; Before (Week 0), individual mice and Ave.): 0
Back Hair Growth Score (BK) (CRF-OE mice [3]; [13]): 0.5 (4×) and 1 (2×) and 0 (4×)
Ventral Abdomen Hair Growth Score (VAb) (CRF-OE mice [3]; [13]): 0.5 (4×) and 0.25 (6×)
Back Hair Growth Score (BK) (CRF-OE mice [3]; [14]): 0.7 and 0.1
Ventral Abdomen Hair Growth Score (VAb) (CRF-OE mice [3]; [14]): 0.35
Skin pigmentation (Pg) score (CRF-OE mice [3]; Before (Week 0), individual mice and Ave., mean): 0
Back Hair Growth Score (BK) (CRF-OE mice [3]; [15]): 10 (4×) and 9.5 (3×) and 7 and 9 and 8.5
Skin pigmentation (Pg) score (CRF-OE mice [3]; [15]): 10 (4×) and 9.5 (3×) and 7 and 9 and 8.5
Ventral Abdomen Hair Growth Score (VAb) (CRF-OE mice [3]; [15]): 0.5 (2×) and 0.25 (7×) and 0.75
Back Hair Growth Score (BK) (CRF-OE mice [3]; [16]): 9.5 and 9.1
Skin pigmentation (Pg) score (CRF-OE mice [3]; [16]): 9.5 and 9.1
Ventral Abdomen Hair Growth Score (VAb) (CRF-OE mice [3]; [16]): 0.35
Ventral Abdomen Hair Growth Score (VAb) (CRF-OE mice [3]; Week 2, 14 days follow-up group, individual mice and Ave.): 0.5
Back Hair Growth Score (BK) (CRF-OE mice [3]; Week 2, 14 days follow-up group, individual mice and Ave., listed as AB): 5 and 9.5 and 8 (2×) and 10
Back Hair Growth Score (BK) (CRF-OE mice [3]; Week 2, 14 days follow-up group, individual mice and Ave., listed as AB, mean): 8.1
Ventral Abdomen Hair Growth Score (VAb) (CRF-OE mice [3]; Week 2, 14 days follow-up group, individual mice and Ave., mean): 0.5
Duration of action (long acting) (CRF1/CRF2 receptor): ≥ 24 h

cyclo(31-34)[DPhe11, His12, CαMeLeu13,39, Nle17, Glu31, Lys34]Ac-Sau(8-40) [Astressin 2B, reference compound]
Hair growth for 1 month post treatment (CRF-OE mice [4]): no hair growth was observed
Duration of delay of gastric emptying [5]: over 6 hours
